How the values were obtained:
[1] = molecular target: endogenous MLKL in MDF (Mus musculus (Mouse), UniProt Q9D2Y4); test: Degradation assay: endogenous MLKL in MDF (western blot); conditions: MDF cells, 24 h incubation with compound, MLKL adjusted for loading with GAPDH, normalized to DMSO only control, read-out: Degradation of endogenous MLKL in MDF (DC50 cell-based assay)
In short: (§1)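 Western blot band intensity of MLKL, adjusted to GAPDH loading and normalized to DMSO-only wells, gave percent degradation. Compound exposure lasted 24 h at final concentrations of 10–0.016 μM in 1:5 steps, in mouse dermal fibroblasts or human U937 cells.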

[2] = molecular target: human MLKL (full length) (Homo sapiens (Human), UniProt Q8NB16); test: KINOMEscan binding assay, human MLKL (full length); conditions: hMLKL, Table 25; read-out: MLKL (KD)
human MLKL (full length), sequence (Q8NB16 whole entry, the tested form may be a part): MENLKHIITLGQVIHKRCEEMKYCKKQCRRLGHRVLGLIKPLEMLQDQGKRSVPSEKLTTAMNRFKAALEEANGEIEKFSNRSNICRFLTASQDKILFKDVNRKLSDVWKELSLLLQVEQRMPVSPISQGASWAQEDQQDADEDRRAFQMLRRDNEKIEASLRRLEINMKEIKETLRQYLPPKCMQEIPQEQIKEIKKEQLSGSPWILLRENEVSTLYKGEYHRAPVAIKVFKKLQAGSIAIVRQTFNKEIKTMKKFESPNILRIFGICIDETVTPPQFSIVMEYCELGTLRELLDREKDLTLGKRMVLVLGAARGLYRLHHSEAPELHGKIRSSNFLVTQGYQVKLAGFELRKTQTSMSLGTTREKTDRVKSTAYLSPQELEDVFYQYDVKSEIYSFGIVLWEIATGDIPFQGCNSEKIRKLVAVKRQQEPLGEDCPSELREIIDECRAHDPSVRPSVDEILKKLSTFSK
In short: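 Competition binding format with qPCR detection. Kinases, either phage-fused from E. coli lysates or HEK-293-derived with a DNA tag, bound ligand-coated beads in the presence of compound (11 points, 3-fold steps, 1% DMSO, top usually 30,000 nM). Kd from nonlinear Hill fitting with slope −1.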

[3] = molecular target: endogenous MLKL in U937 (Homo sapiens (Human), UniProt Q8NB16); test: Degradation assay: endogenous MLKL in U937 (western blot); conditions: U937, 24 h incubation, read-out: Degradation of endogenous MLKL in U937 (DC50 cell-based assay)
endogenous MLKL in U937, sequence (Q8NB16 whole entry): as the sequence (Q8NB16 whole entry, the tested form may be a part) above
In short: as §1

[4] = system: Immortalised Mouse Dermal Fibroblasts (MDFs); test: Cellular assay: inhibition of TSI induced necroptosis, CellTitre-Glo viability; conditions: Mus musculus, Fibroblast; MDF, 3 hours TSI cocktail, Table 27; read-out: Inhibition of TSI-induced necroptosis (IC50 cell-based assay) in MDF
In short: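 Necroptosis induced for 3 h with TSI: rhTNF 100 ng/ml, Smac mimetic 500 nM, caspase inhibitor IDN-6556 10 μM. Mouse dermal fibroblasts had received compound (36 μM top, ten three-fold steps) 30 min beforehand. ATP-based viability scaled between untreated and TSI-only wells; IC50 taken as 4-parameter curve inflection.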

endogenous MLKL in MDF, sequence (Q9D2Y4 whole entry): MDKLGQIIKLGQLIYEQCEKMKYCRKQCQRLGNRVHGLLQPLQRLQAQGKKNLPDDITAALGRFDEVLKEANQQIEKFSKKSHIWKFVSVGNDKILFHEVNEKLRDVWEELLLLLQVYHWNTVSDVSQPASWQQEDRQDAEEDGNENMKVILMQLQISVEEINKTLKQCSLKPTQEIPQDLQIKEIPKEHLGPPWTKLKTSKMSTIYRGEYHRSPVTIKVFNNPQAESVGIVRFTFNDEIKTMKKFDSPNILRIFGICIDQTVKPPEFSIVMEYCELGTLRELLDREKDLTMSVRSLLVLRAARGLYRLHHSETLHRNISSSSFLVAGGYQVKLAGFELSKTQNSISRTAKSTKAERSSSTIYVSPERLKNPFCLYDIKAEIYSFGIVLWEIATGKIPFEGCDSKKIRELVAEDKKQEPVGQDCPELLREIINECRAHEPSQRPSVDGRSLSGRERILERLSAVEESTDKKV

Structure (SMILES) | DC50 [1] | Kd [2] | DC50 [3] | IC50 [4]
C[C@H](Oc1cc(-c2nn(C)c3c(-c4cnn(C5CCC(C(=O)N6CCC(c7cccc8c7C(=O)N(C7CCC(=O)NC7=O)C8=O)CC6)CC5)c4)cnc(N)c23)ccc1NS(=O)(=O)C(F)F)c1ccc(F)cc1 (stereo partly drawn) [Compound 1127] | < 1 µM | 0.01 to 1 µM | < 1 µM | < 1 µM
C[C@H](Oc1cc(-c2nn(C)c3c(-c4cnn(C5CCN(CC6CCN(c7cccc8c7C(=O)N(C7CCC(=O)NC7=O)C8=O)C6)CC5)c4)cnc(N)c23)ccc1NS(=O)(=O)C(F)F)c1ccc(F)cc1 (stereo partly drawn) [Compound 1083, N-[4-(4-amino-7-{1-[1-({1-[2-(2,6-dioxopiperidin-3-yl)-1,3-dioxo-2,3-dihydro-1H-isoindol-4-yl]pyrrolidin-3-yl}methyl)piperidin-4-yl]-1H-pyrazol-4-yl}-1-methyl-1H-pyrazolo[4,3-c]pyridin-3-yl}-2-[(1S)-1-(4-fluorophenyl)ethoxy]phenyl]-1,1-difluoromethanesulfonamide] | < 1 µM | < 0.01 µM | < 1 µM | < 1 µM
Cn1nc(-c2ccc(NS(=O)(=O)CC(F)(F)F)c(F)c2)c2c(N)ncc(-c3cnn(C4CCN(C(=O)[C@H]5C[C@H](Nc6cccc7c6C(=O)N(C6CCC(=O)NC6=O)C7=O)C5)CC4)c3)c21 (stereo partly drawn) [Compound 1134, N-{4-[4-amino-1-methyl-7-(1-{1-[(trans)-3-{[2-(2,6-dioxopiperidin-3-yl)-1,3-dioxo-2,3-dihydro-1H-isoindol-4-yl]amino}cyclobutanecarbonyl]piperidin-4-yl}-1H-pyrazol-4-yl)-1H-pyrazolo[4,3-c]pyridin-3-yl]-2-fluorophenyl}-2,2,2-trifluoroethane-1-sulfonamide] | < 1 µM | < 0.01 µM | < 1 µM | < 1 µM
C[C@H](Oc1cc(-c2nn(C)c3c(-c4cnn(C5CCN(C(=O)c6ccc(CNc7cccc8c7C(=O)N(C7CCC(=O)NC7=O)C8=O)cc6)CC5)c4)cnc(N)c23)ccc1NS(=O)(=O)C(F)F)c1ccc(F)cc1 (stereo partly drawn) [Compound 1093, N-{4-[4-amino-7-(1-{1-[4-({[2-(2,6-dioxopiperidin-3-yl)-1,3-dioxo-2,3-dihydro-1H-isoindol-4-yl]amino}methyl)benzoyl]piperidin-4-yl}-1H-pyrazol-4-yl)-1-methyl-1H-pyrazolo[4,3-c]pyridin-3-yl]-2-[(1S)-1-(4-fluorophenyl)ethoxy]phenyl}-1,1-difluoromethanesulfonamide] | < 1 µM | 0.01 to 1 µM | < 1 µM | < 1 µM
C[C@H](Oc1cc(-c2nn(C)c3c(-c4cnn(C5CCC(C(=O)N6CCN(c7cccc8c7C(=O)N(C7CCC(=O)NC7=O)C8=O)CC6)N(C)C5)c4)cnc(N)c23)ccc1NS(=O)(=O)C(F)F)c1ccc(F)cc1 (stereo partly drawn) [Compound 1121, N-(4-{4-amino-7-[1-(6-{4-[2-(2,6-dioxopiperidin-3-yl)-1,3-dioxo-2,3-dihydro-1H-isoindol-4-yl]piperazine-1-carbonyl}-1-methylpiperidin-3-yl)-1H-pyrazol-4-yl]-1-methyl-1H-pyrazolo[4,3-c]pyridin-3-yl}-2-[(1S)-1-(4-fluorophenyl)ethoxy]phenyl)-1,1-difluoromethanesulfonamide] | < 1 µM | < 0.01 µM | < 1 µM | < 1 µM
C[C@H](Oc1cc(-c2nn(C)c3c(-c4cnn(C5CCN(CCCN6CCN(C(=O)COc7cccc8c7C(=O)N(C7CCC(=O)NC7=O)C8=O)CC6)CC5)c4)cnc(N)c23)ccc1NS(=O)(=O)C(F)F)c1ccc(F)cc1 (stereo partly drawn) [Compound 1099, N-(4-{4-amino-7-[1-(1-{3-[4-(2-{[2-(2,6-dioxopiperidin-3-yl)-1,3-dioxo-2,3-dihydro-1H-isoindol-4-yl]oxy}acetyl)piperazin-1-yl]propyl}piperidin-4-yl)-1H-pyrazol-4-yl]-1-methyl-1H-pyrazolo[4,3-c]pyridin-3-yl}-2-[(1S)-1-(4-fluorophenyl)ethoxy]phenyl)-1,1-difluoromethanesulfonamide] | 1 to 10 µM | < 0.01 µM | < 1 µM | 1 to 10 µM

Continued, in another order:

DC50 [1] | Kd [2] | DC50 [3] | Structure (SMILES) | IC50 [4]
< 1 µM | < 0.01 µM | < 1 µM | C[C@H](Oc1cc(-c2nn(C)c3c(-c4cnn(C5CCN(CC6CCN(c7cccc8c7C(=O)N(C7CCC(=O)NC7=O)C8=O)CC6)CC5)c4)cnc(N)c23)ccc1NS(=O)(=O)C(F)F)c1ccc(F)cc1 (stereo partly drawn) [Compound 1079, N-[4-(4-amino-7-{1-[1-({1-[2-(2,6-dioxopiperidin-3-yl)-1,3-dioxo-2,3-dihydro-1H-isoindol-4-yl]piperidin-4-yl}methyl)piperidin-4-yl]-1H-pyrazol-4-yl}-1-methyl-1H-pyrazolo[4,3-c]pyridin-3-yl)-2-[(1S)-1-(4-fluorophenyl)ethoxy]phenyl]-1,1-difluoromethane-sulfonamide] | < 1 µM
< 1 µM | < 0.01 µM | 1 to 10 µM | C[C@H](Oc1cc(-c2nn(C)c3c(-c4cnn(C5CCN(C[C@H]6C[C@H](Nc7cccc8c7C(=O)N(C7CCC(=O)NC7=O)C8=O)C6)CC5)c4)cnc(N)c23)ccc1NS(=O)(=O)C(F)F)c1ccc(F)cc1 (stereo partly drawn) [Compound 1108, N-(4-{4-amino-1-methyl-7-[1-(1-{[(trans)-3-{[2-(2,6-dioxopiperidin-3-yl)-1,3-dioxo-2,3-dihydro-1H-isoindol-4-yl]amino}cyclobutyl]methyl}piperidin-4-yl)-1H-pyrazol-4-yl]-1H-pyrazolo[4,3-c]pyridin-3-yl}-2-[(1S)-1-(4-fluorophenyl)ethoxy]phenyl)-1,1-difluoromethane-sulfonamide] | < 1 µM
1 to 10 µM | < 0.01 µM | < 1 µM | Cn1nc(-c2ccc(NS(=O)(=O)C(F)F)c(F)c2)c2c(N)ncc(-c3cnn(C4CCN(Cc5cccc(CNc6cccc7c6C(=O)N(C6CCC(=O)NC6=O)C7=O)c5)CC4)c3)c21 (stereo not drawn) [Compound 1122, N-(4-{4-amino-7-[1-(1-{[3-({[2-(2,6-dioxopiperidin-3-yl)-1,3-dioxo-2,3-dihydro-1H-isoindol-4-yl]amino}methyl)phenyl]methyl}piperidin-4-yl)-1H-pyrazol-4-yl]-1-methyl-1H-pyrazolo[4,3-c]pyridin-3-yl}-2-fluorophenyl)-1,1-difluoromethanesulfonamide] | 1 to 10 µM
< 1 µM | 0.01 to 1 µM | < 1 µM | C[C@H](Oc1cc(-c2nn(C)c3c(-c4cnn(C5CCN(Cc6cccc(CNc7cccc8c7C(=O)N(C7CCC(=O)NC7=O)C8=O)c6)CC5)c4)cnc(N)c23)ccc1NS(=O)(=O)C(F)F)c1ccc(F)cc1 (stereo partly drawn) [Compound 1095, N-(4-{4-amino-7-[1-(1-{[3-{{[2-(2,6-dioxopiperidin-3-yl)-1,3-dioxo-2,3-dihydro-1H-isoindol-4-yl]amino}methyl)phenyl]methyl}piperidin-4-yl)-1H-pyrazol-4-yl]-1-methyl-1H-pyrazolo[4,3-c]pyridin-3-yl}-2-[(1S)-1-(4-fluorophenyl)ethoxy]phenyl)-1,1-difluoromethane-sulfonamide] | < 1 µM
< 1 µM | 0.01 to 1 µM | < 1 µM | C[C@H](Oc1cc(-c2nn(C)c3c(-c4cnn(C5CCN(Cc6ccc(CNc7cccc8c7C(=O)N(C7CCC(=O)NC7=O)C8=O)cc6)CC5)c4)cnc(N)c23)ccc1NS(=O)(=O)C(F)F)c1ccc(F)cc1 (stereo partly drawn) [Compound 1115, N-(4-{4-amino-7-[1-(1-{[4-({[2-(2,6-dioxopiperidin-3-yl)-1,3-dioxo-2,3-dihydro-1H-isoindol-4-yl]amino}methyl)phenyl]methyl}piperidin-4-yl)-1H-pyrazol-4-yl]-1-methyl-1H-pyrazolo[4,3-c]pyridin-3-yl}-2-[(1S)-1-(4-fluorophenyl)ethoxy]phenyl)-1,1-difluoromethanesulfonamide] | < 1 µM
< 1 µM | 0.01 to 1 µM | 1 to 10 µM | Cc1ncsc1-c1ccc(CNC(=O)[C@@H]2C[C@@H](O)CN2C(=O)[C@@H](NC(=O)C2(F)CC2)C(C)(C)C)c(OCCCCCn2cc(-c3cnc(N)c4c(-c5ccc(NS(=O)(=O)C(F)F)c(O[C@@H](C)c6ccc(F)cc6)c5)nn(C)c34)cn2)c1 [Compound 1068, (2S,4R)-N-[(2-{[5-(4-{4-amino-3-[4-(difluoromethanesulfonamido)-3-[(1S)-1-(4-fluorophenyl)ethoxy]phenyl]-1-methyl-1H-pyrazolo[4,3-c]pyridin-7-yl}-1H-pyrazol-1-yl)pentyl]oxy}-4-(4-methyl-1,3-thiazol-5-yl)phenyl)methyl]-1-[(2S)-2-[(1-fluorocyclopropyl)formamido]-3,3-dimethylbutanoyl]-4-hydroxypyrrolidine-2-carboxamide] | 1 to 10 µM

Reference: US20250115598A1 (Anaxis Pharma Pty Ltd, priority 2021, published 2025)
